# Assay results taken from ChEMBL document CHEMBL4813942, “Hydrated Rubrolides from the New Zealand Tunicate Synoicum kuranui” (2021).
# Active and inactive are the calls of the source. No cut-off for these calls is given here.
# Assays:
# Staphylococcus aureus [1] = assay: Antibacterial activity against methicillin-sensitive Staphylococcus aureus ATCC 25923 assessed as bacterial growth inhibition measured after 16 hrs by serial dilution method; type: functional
# HCT-116 [2] = assay: Cytotoxicity against human HCT-116 cells assessed as reduction in cell growth at 0.06 to 30 uM measured after 48 hrs by MTS assay; type: functional, cell-based; details: dose 0.06-30 µM
# Staphylococcus aureus [3] = assay: Antibacterial activity against methicillin-resistant Staphylococcus aureus ATCC 43300 assessed as bacterial growth inhibition measured after 16 hrs by serial dilution method; type: functional
# Bacillus subtilis = assay: Antibacterial activity against Bacillus subtilis 168 assessed as bacterial growth inhibition measured after 16 hrs by serial dilution method; type: functional; details: subsp. subtilis str. 168
# HCT-116 [4] = assay: Cytotoxicity against human HCT-116 cells assessed as reduction in cell growth at 12.8 uM measured after 48 hrs by MTS assay; type: functional, cell-based
Compound,MIC (Staphylococcus aureus [1]) [µg/mL],Activity (HCT-116 [2]),MIC (Staphylococcus aureus [3]) [µg/mL],MIC (Bacillus subtilis) [µg/mL],Activity (HCT-116 [4])
O=C1OC(O)(Cc2ccc(O)cc2)C(c2cc(Br)c(O)c(Br)c2)=C1Cl (centres undefined),128,inactive,128,128,
O=C1C=C(c2cc(Br)c(O)c(Br)c2)C(O)(Cc2cc(Br)c(O)c(Br)c2)O1 (centres undefined),32,inactive,16,32,
O=C1C=C(c2cc(Br)c(O)c(Br)c2)/C(=C/c2cc(Br)c(O)c(Br)c2)O1 [RUBROLIDE A],8,inactive,2,2,
CN(C)[C@@H]1C(O)=C(C(N)=O)C(=O)[C@@]2(O)C(O)=C3C(=O)c4c(O)cccc4[C@@](C)(O)[C@H]3C[C@@H]12 [TETRACYCLINE],< 0.25,,< 0.25,2,
O=C1C=C(c2cc(Br)c(O)c(Br)c2)C(O)(Cc2ccc(O)c(Br)c2)O1 (centres undefined),> 128,,> 128,> 128,Active
